These results are taken from ChEMBL document CHEMBL1153980, “Synthesis and anti-inflammatory activity of the major metabolites of imrecoxib” (Bioorg Med Chem Lett, 2009).

The species named for experiment [1] is Mus musculus. Put plainly: Selectivity index, ratio of IC50 for COX1 to IC50 for COX2 in mouse peritoneal macrophages.
For experiment [2], the system named is Rattus norvegicus. The experiment can be described thus: Antiinflammatory activity in rat assessed as inhibition of carrageenan induced paw edema at 10 mg/kg after 4 hrs relative to control. It is filed as functional.
For experiment [3], the system named is Rattus norvegicus. Put plainly: Antiinflammatory activity in rat assessed as inhibition of carrageenan induced paw edema at 10 mg/kg after 1 hr relative to control. In kind it is functional.
Experiment [4] concerns the target T1, Prostaglandin G/H synthase 2 (Mus musculus, UniProt Q05769).
T1 sequence (Q05769 whole entry): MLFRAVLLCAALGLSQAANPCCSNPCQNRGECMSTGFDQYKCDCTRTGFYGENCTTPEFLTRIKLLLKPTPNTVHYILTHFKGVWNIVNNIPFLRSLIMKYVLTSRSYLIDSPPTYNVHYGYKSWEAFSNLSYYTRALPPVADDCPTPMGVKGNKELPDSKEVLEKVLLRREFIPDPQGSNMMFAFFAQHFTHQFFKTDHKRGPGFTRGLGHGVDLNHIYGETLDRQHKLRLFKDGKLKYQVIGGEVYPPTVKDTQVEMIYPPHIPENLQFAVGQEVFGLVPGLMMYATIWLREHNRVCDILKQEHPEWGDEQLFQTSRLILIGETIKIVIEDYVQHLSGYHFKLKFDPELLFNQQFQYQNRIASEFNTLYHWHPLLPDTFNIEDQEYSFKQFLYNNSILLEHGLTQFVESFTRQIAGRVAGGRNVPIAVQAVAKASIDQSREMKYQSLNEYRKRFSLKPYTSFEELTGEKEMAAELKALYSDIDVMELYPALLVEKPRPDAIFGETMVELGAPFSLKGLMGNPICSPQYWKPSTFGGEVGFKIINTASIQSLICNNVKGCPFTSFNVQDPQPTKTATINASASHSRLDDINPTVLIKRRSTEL
The experiment can be described thus: Inhibition of COX2 in mouse peritoneal macrophages.

The target in experiment [5] is T2, Prostaglandin G/H synthase 1 (Mus musculus, UniProt P22437).
T2 sequence (P22437 whole entry): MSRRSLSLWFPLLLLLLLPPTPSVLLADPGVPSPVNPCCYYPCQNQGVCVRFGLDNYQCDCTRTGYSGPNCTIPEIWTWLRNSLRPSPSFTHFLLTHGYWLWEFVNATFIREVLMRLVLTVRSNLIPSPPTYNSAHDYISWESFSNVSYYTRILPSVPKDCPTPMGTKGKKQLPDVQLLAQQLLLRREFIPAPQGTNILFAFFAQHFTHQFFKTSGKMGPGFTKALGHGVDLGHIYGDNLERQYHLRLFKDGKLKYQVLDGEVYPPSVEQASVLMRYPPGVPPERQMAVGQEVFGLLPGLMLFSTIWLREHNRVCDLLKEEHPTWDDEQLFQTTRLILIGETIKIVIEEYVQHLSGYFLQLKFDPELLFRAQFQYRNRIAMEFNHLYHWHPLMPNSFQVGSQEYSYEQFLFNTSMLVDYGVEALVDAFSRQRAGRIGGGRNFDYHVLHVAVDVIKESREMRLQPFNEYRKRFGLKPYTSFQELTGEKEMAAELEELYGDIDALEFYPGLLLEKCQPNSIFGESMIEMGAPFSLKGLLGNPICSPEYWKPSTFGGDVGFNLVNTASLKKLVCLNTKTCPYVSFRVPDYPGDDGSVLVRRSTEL
Put plainly: Inhibition of COX1 in mouse peritoneal macrophages.

For experiment [6], the system named is Rattus norvegicus. The experiment can be described thus: Antiinflammatory activity in rat assessed as inhibition of carrageenan induced paw edema at 10 mg/kg after 2 hrs relative to control. It is filed as functional.
Experiment [7] has as its system Rattus norvegicus. Put plainly: Antiinflammatory activity in rat assessed as inhibition of carrageenan induced paw edema at 10 mg/kg after 3 hrs relative to control. It is filed as functional.
Experiment [8] addresses Prostaglandin G/H synthase 1 (Mus musculus, UniProt P22437). The experiment can be described thus: Inhibition of calcimycin-induced COX1 activity.

For `CCCN1CC(c2ccc(S(C)(=O)=O)cc2)=C(c2ccc(C)cc2)C1=O` [IMRECOXIB], the Ratio IC50 in experiment [1] worked out at 6.4. Moreover, the inhibition in vivo at 10 mg/kg came to 50.4% in experiment [2], 31.3% in experiment [3], 39.5% in experiment [6] and 50.4% in experiment [7]. Moreover, the IC50 is 18 nM in experiment [4] and 115 nM in experiment [5].
On to `Cc1ccc(-c2cc(C(F)(F)F)nn2-c2ccc(S(N)(=O)=O)cc2)cc1` [CELECOXIB], for which the inhibition in vivo at 10 mg/kg came out at 49.3% in experiment [2], 23.5% in experiment [3], 36.6% in experiment [6] and 44.7% in experiment [7].
As for `CCCN1CC(c2ccc(S(C)(=O)=O)cc2)=C(c2ccc(C(=O)O)cc2)C1=O`, the Ratio IC50 in experiment [1] worked out at 6.8. The IC50 in experiment [8] was 2780 nM; in experiment [4] it was 410 nM. Also, the inhibition in vivo at 10 mg/kg in experiment [2] worked out at 65.9%; in experiment [3], 45.4%; in experiment [6], 51.9%; in experiment [7], 55.5%.
Consider `CCCN1CC(c2ccc(S(C)(=O)=O)cc2)=C(c2ccc(CO)cc2)C1=O`, for which the Ratio IC50 in experiment [1] came out at 6.2. For the same molecule, the inhibition in vivo at 10 mg/kg amounted to 63.9% in experiment [2], 26.5% in experiment [3], 46% in experiment [6] and 56.1% in experiment [7]. The IC50 in experiment [4] came out at 14 nM; in experiment [5], 87 nM.
